In one series the test system is rodent. The series is described as follows: Prediction of acute oral LD50 from the IC50 by Halle's Registry of cytotoxicity (RC) prediction model. Particulars: log (LD50)=0.435×log (IC50)+0.625. An excerpt:
FIG. 8. IICT-TA67 is not toxic. To evaluate the cytotoxicity of test chemical (IICT-TA67) BALB/c 3T3 cell line was used for Neutral Red Uptake (NRU) cytotoxicity test. The test result has been used to determine IC50 for IICT-TA67 and acute oral toxicity (LD50) in rodent was predicted.
Basal cytotoxicity of IICT-TA67 has been performed to measure IC50 and thereafter predict in vivo acute oral LD50 values in rodent by using Halle's Registry of cytotoxicity (RC) prediction model: log (LD50)=0.435×log (IC50)+0.625 (Halle, 1998; Spielmann et al., 1999). Balb/c 3T3 Neutral Red Dye Uptake (NRU) cytotoxicity assay procedure was adopted (Liebsch & Spielmann 1995). In brief 3T3 cell were grown in 96 well microtitre plates and exposed to IICT-TA-67. After 48-hour incubation, the test material was removed and Neutral red (NR) solution was applied to the cells. […] The NRU was determined by using a microtitre plate reader to measure the optical density at 540 nm of the eluted dye in 96 well plate. A calculation of cell viability expressed as NRU was made for each concentration of the test chemical by using the mean NRU of 6 replicate values per test concentration. The cell viability value was compared with the mean NRU of all vehicle control values and relative cell viability was then expressed as percent of untreated vehicle control. […]

Series [1] relates to adhesion of human neutrophils to the endothelial monolayer. Description: Neutrophil adhesion assay on TNF-alpha induced HUVECs. As to conditions: HUVEC, HUVECs pretreated 2 h, TNF-α 6 h, adhesion 1 h at 37° C. It counts as cell-based. The method, then: FIG. 5. IICT-TA67 inhibits the adhesion of Neutrophils on TNF-alpha induced HUVECs. To study whether the inhibition of Intercellular Adhesion Molecule type 1 (ICAM-1) and Vascular Cell Adhesion Molecule type 1(VCAM-1) functionally correlates with the inhibition of adhesion of neutrophils to the endothelial monolayer, neutrophil adhesion assay was performed. For this, HUVECs were pretreated with various concentrations of IICT-TA67 for 2 hours followed by induction with TNF-α for 6 hours. Human blood neutrophils were added onto the endothelial cells monolayer and allowed to adhere for one hour at 37° C. The number of cells that remained adhered to the monolayer was estimated by measuring the peroxidase activity.
Neutrophils were isolated from peripheral blood of healthy individuals. Blood was collected in heparin solution (20 U/ml) and erythrocytes were removed by sedimentation against 6% dextran solution. […] The number of cells were recorded to make a final concentration of 6×10^5 cells/ml.
The endothelial cells plated in 96-well culture plates were incubated with or without compound IICT-TA67 at desired concentrations for 2 h, followed by induction with TNF-α (10 ng/ml) for 6 h. […] The absorbance was read at 490 nm using an automated microplate reader (Model 680, Bio-Rad, USA).

What is called IC50 is the midpoint of a concentration-inhibition curve.

The structures appear in SMILES notation. ≈ marks a conversion by molar mass, not a printed value.

In the case of `COc1ccc(C(c2[nH]c3ccccc3c2CC(=O)O)c2[nH]c3ccccc3c2CC(=O)O)cc1Oc1nc(NC2CC2)nc(NC2CC2)n1` [Compound 7, 2,2′-[2,2′-3-(4,6-bis-cyclopropylamino)-1,3,5-triazin-2-yl-oxy-4-methoxy-phenyl]-methylene-bis-(1H-indole-3,3-diyl)-diacetic acid], in the series with rodent, the “predicted acute oral LD50” value is on record as 430 mg/kg body weight. Further, in series [1], the IC50 was 12 µg/mL (≈ 17.8 µM).

The values above are taken from US9085559B2, “Triazine-aryl-bis-indoles and process for preparation thereof” (COUNCIL OF SCIENTIFIC & INDUSTRIAL RESEARCH, priority 2010, dated 2015).
